{
  "source": "paper PMC3506384",
  "about": "(Cancer chemotherapy and pharmacology, 2011)",
  "key": {"clinical": {"experiment": "clinical", "settings": "human, plasma; for half-life: intravenous"}, "[1]": {"experiment": "Bortezomib plasma pharmacokinetics, non-compartmental, LC-MS/MS"}, "[2]": {"settings": "cited from earlier work"}, "Phase I dose escalation": {"experiment": "Phase I dose escalation", "assay_type": "in vivo, human"}, "[3]": {"settings": "co-administration of ketoconazole; cited from earlier work"}, "[4]": {"settings": "cited from earlier work", "remark": "listed apart in the source"}, "[5]": {"experiment": "Serum anticonvulsant levels in group A patients", "assay_type": "in vivo, human", "settings": "all 3 patients in group A; at PK sampling on days 2 and 9 of cycle 1"}, "[6]": {"settings": "Day 2, bortezomib 1.0 mg/m^2, group A (taking HEIAs), N 1"}, "[7]": {"settings": "Day 2, bortezomib 1.0 mg/m^2, group B (not taking HEIAs), N 13, median (range)"}, "[8]": {"settings": "Day 2, bortezomib 1.3 mg/m^2, group A (taking HEIAs), N 1"}, "[9]": {"settings": "Day 2, bortezomib 1.3 mg/m^2, group B (not taking HEIAs), N 6, median (range)"}, "[10]": {"settings": "Day 2, bortezomib 1.5 mg/m^2, group A (taking HEIAs), N 1"}, "[11]": {"settings": "Day 2, bortezomib 1.5 mg/m^2, group B (not taking HEIAs), N 1"}, "[12]": {"settings": "Day 9, bortezomib 1.0 mg/m^2, group A (taking HEIAs), N 1"}, "[13]": {"settings": "Day 9, bortezomib 1.0 mg/m^2, group B (not taking HEIAs), N 13, median (range)"}, "[14]": {"settings": "Day 9, bortezomib 1.3 mg/m^2, group A (taking HEIAs), N 1"}, "[15]": {"settings": "Day 9, bortezomib 1.3 mg/m^2, group B (not taking HEIAs), N 6, median (range)"}, "[16]": {"settings": "patients not taking concomitant HEIAs (group B)"}},
  "note": "Where two headings read alike, the source gives them in different places.",
  "data": [
    {"smiles": "CC(C)C[C@H](NC(=O)[C@H](Cc1ccccc1)NC(=O)c1cnccn1)B(O)O", "note": "[bortezomib]", "values": [
      {"measurement": "half-life", "setting": "clinical; 1 mg/m2", "result": 11.3, "unit": "h"},
      {"measurement": "half-life", "setting": "clinical; 1.3 mg/m2", "result": 12.4, "unit": "h"},
      {"measurement": "half-life", "setting": "clinical; 1.5 mg/m2", "result": 6.4, "unit": "h"},
      {"measurement": "Cmax", "setting": "clinical; iv, 1 mg/m^2", "result": 65.5, "unit": "ng/mL"},
      {"measurement": "AUC 0–∞", "setting": "[1]; [6]", "result": 20.8, "unit": "µg·h/L"},
      {"measurement": "CLsys", "setting": "[1]; [6]", "result": 115.7, "unit": "L/h"},
      {"measurement": "AUC 0–∞", "setting": "[1]; [7]", "result": "33.6 (21–106) ug/l × h"},
      {"measurement": "CLsys", "setting": "[1]; [7]", "result": "46.6 (17–90) l/h"},
      {"measurement": "Elimination T1/2", "setting": "[1]; [7]", "result": "12.7 (2–21) h"},
      {"measurement": "AUC 0–∞", "setting": "[1]; [8]", "result": 40.4, "unit": "µg·h/L"},
      {"measurement": "CLsys", "setting": "[1]; [8]", "result": 64.4, "unit": "L/h"},
      {"measurement": "AUC 0–∞", "setting": "[1]; [9]", "result": "56.1 (34–97) ug/l × h"},
      {"measurement": "CLsys", "setting": "[1]; [9]", "result": "44.0 (21–81) l/h"},
      {"measurement": "Elimination T1/2", "setting": "[1]; [9]", "result": "18.8 (13–26) h"},
      {"measurement": "AUC 0–∞", "setting": "[1]; [10]", "result": 30.6, "unit": "µg·h/L"},
      {"measurement": "CLsys", "setting": "[1]; [10]", "result": 94.8, "unit": "L/h"},
      {"measurement": "AUC 0–∞", "setting": "[1]; [11]", "result": 137.4, "unit": "µg·h/L"},
      {"measurement": "CLsys", "setting": "[1]; [11]", "result": 16.0, "unit": "L/h"},
      {"measurement": "AUC 0–∞", "setting": "[1]; [12]", "result": 30.7, "unit": "µg·h/L"},
      {"measurement": "CLsys", "setting": "[1]; [12]", "result": 78.1, "unit": "L/h"},
      {"measurement": "Elimination T1/2", "setting": "[1]; [12]", "result": 15.5, "unit": "h"},
      {"measurement": "AUC 0–∞", "setting": "[1]; [13]", "result": "86.8 (32–216) ug/l × h"},
      {"measurement": "CLsys", "setting": "[1]; [13]", "result": "20.7 (9–59) l/h"},
      {"measurement": "AUC 0–∞", "setting": "[1]; [14]", "result": 72.4, "unit": "µg·h/L"},
      {"measurement": "CLsys", "setting": "[1]; [14]", "result": 35.9, "unit": "L/h"},
      {"measurement": "Elimination T1/2", "setting": "[1]; [14]", "result": 11.1, "unit": "h"},
      {"measurement": "AUC 0–∞", "setting": "[1]; [15]", "result": "120.0 (78–206) ug/l × h"},
      {"measurement": "CLsys", "setting": "[1]; [15]", "result": "21.2 (10–33) l/h"},
      {"measurement": "Elimination T1/2", "setting": "[1]; [15]", "result": "18.9 (12–41) h"},
      {"measurement": "CLsys on day 9 as percent of the CLsys on day 2", "setting": "[1]; median percent change, P < 0.01, paired Wilcoxon test, all patients with PK", "result": 51, "unit": "%"},
      {"measurement": "rapid initial decline of plasma concentration", "setting": "[1]; within the first few hours after the dose, both groups", "result": 100, "unit": "fold"},
      {"measurement": "MTD of single agent bortezomib", "setting": "[2]; recurrent malignant glioma patients not taking HEIAs", "result": 1.7, "unit": "mg/m^2"},
      {"measurement": "MTD of single agent bortezomib", "setting": "[2]; recurrent malignant glioma patients receiving concurrent HEIAs", "result": 2.5, "unit": "mg/m^2"},
      {"measurement": "MTD of bortezomib in combination with temozolomide", "setting": "Phase I dose escalation; patients not taking HEIAs, days 2, 5, 9, 12 of a 28-day cycle", "result": 1.3, "unit": "mg/m^2"},
      {"measurement": "recommended dose for phase 2 studies, bortezomib in the combination", "setting": "Phase I dose escalation; patients not taking HEIAs, days 2, 5, 9 and 12, every 28 days", "result": 1.3, "unit": "mg/m^2"},
      {"measurement": "MTD of bortezomib in combination with temozolomide", "setting": "Phase I dose escalation; [16]", "result": 1.3, "unit": "mg/m^2/dose"},
      {"measurement": "mean increase in systemic exposure of bortezomib with ketoconazole", "setting": "[3]", "result": 35, "unit": "%"},
      {"measurement": "individual MTD (single agent)", "setting": "[4]; bortezomib alone", "result": 1.6, "unit": "mg/m^2"}
    ]},
    {"smiles": "O=C1NC(=O)C(c2ccccc2)(c2ccccc2)N1", "note": "[phenytoin]", "values": [
      {"measurement": "serum phenytoin levels", "setting": "[5]", "result": "within the therapeutic range"}
    ]},
    {"smiles": "Cn1nnc2c(C(N)=O)ncn2c1=O", "note": "[temozolomide]", "values": [
      {"measurement": "recommended dose for phase 2 studies, temozolomide in the combination", "setting": "Phase I dose escalation; patients not taking HEIAs, days 1–5, every 28 days", "result": 200, "unit": "mg/m^2"},
      {"measurement": "MTD of temozolomide in combination with bortezomib", "setting": "Phase I dose escalation; patients not taking HEIAs, days 1–5 of a 28-day cycle", "result": 200, "unit": "mg/m^2"},
      {"measurement": "MTD of temozolomide in combination with bortezomib", "setting": "Phase I dose escalation; [16]", "result": 200, "unit": "mg/m^2/dose"},
      {"measurement": "individual MTD (single agent)", "setting": "[4]; temozolomide alone", "result": 200, "unit": "mg/m^2"}
    ]}
  ]
}
